Key:
Experiment in all cases: cells
[1] = test system: KARPAS-45; type: functional, cell-based; conditions: Homo sapiens;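 note: inhibition of cell line growth, read out through a viability assay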
Description: SANGER: Inhibition of human KARPAS-45 cell growth in a cell viability assay.

[2] = test system: SK-NEP-1; type: functional, cell-based; conditions: Homo sapiens;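 note: growth inhibition of human SK-NEP-1 cells, read out by a cell viability assay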
Description: SANGER: Inhibition of human SK-NEP-1 cell growth in a cell viability assay.

[3] = test system: MCF7; type: functional, cell-based, Homo sapiens; conditions: Homo sapiens, MCF7;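 note: growth inhibition of human MCF7 cells, read out with a cell viability assay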
Description: SANGER: Inhibition of human MCF7 cell growth in a cell viability assay.

[4] = test system: A704; type: functional, cell-based, Homo sapiens; conditions: Homo sapiens, A704;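 note: growth inhibition of human A704 cells, read out with a cell viability assay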
Description: SANGER: Inhibition of human A704 cell growth in a cell viability assay.

[5] = test system: D-336MG; type: functional, cell-based, Homo sapiens; conditions: Homo sapiens, D-336MG
Description: SANGER: Inhibition of human D-336MG cell growth in a cell viability assay.

[6] = test system: IST-SL1; type: functional, cell-based, Homo sapiens; conditions: Homo sapiens, IST-SL1;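 note: growth inhibition of human IST-SL1 cells, read out with a cell viability assay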
Description: SANGER: Inhibition of human IST-SL1 cell growth in a cell viability assay.

[7] = test system: CAL-39; type: functional, cell-based, Homo sapiens; conditions: Homo sapiens, CAL-39;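 note: cell viability assay measuring growth inhibition of CAL-39 cells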
Description: SANGER: Inhibition of human CAL-39 cell growth in a cell viability assay.

[8] = test system: SNU-5; type: functional, cell-based; conditions: Homo sapiens;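 note: cell viability readout used to measure growth inhibition in human NCI-SNU-5 cells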
Description: SANGER: Inhibition of human NCI-SNU-5 cell growth in a cell viability assay.

[9] = test system: DK-MG; type: functional, cell-based, Homo sapiens; conditions: Homo sapiens, DK-MG;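 note: growth inhibition of DK-MG cells, read out with a cell viability assay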
Description: SANGER: Inhibition of human DK-MG cell growth in a cell viability assay.

[10] = test system: CAL-120; type: functional, cell-based, Homo sapiens; conditions: Homo sapiens, CAL-120;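 note: cell growth inhibition, read out as cell viability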
Description: SANGER: Inhibition of human CAL-120 cell growth in a cell viability assay.

[11] = test system: NCI-H596; type: functional, cell-based, Homo sapiens; conditions: Homo sapiens, NCI-H596;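 note: growth inhibition of NCI-H596 cells, read out with a cell viability assay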
Description: SANGER: Inhibition of human NCI-H596 cell growth in a cell viability assay.

[12] = test system: KLE; type: functional, cell-based, Homo sapiens; conditions: Homo sapiens, KLE;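 note: growth inhibition of human KLE cells, read out with a cell viability assay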
Description: SANGER: Inhibition of human KLE cell growth in a cell viability assay.

[13] = test system: LU-134-A; type: functional, cell-based; conditions: Homo sapiens
Description: SANGER: Inhibition of human LU-134-A cell growth in a cell viability assay.

[14] = test system: VMRC-RCZ; type: functional, cell-based; conditions: Homo sapiens;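 note: growth inhibition measured with a cell viability assay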
Description: SANGER: Inhibition of human VMRC-RCZ cell growth in a cell viability assay.

[15] = test system: HCC1569; type: functional, cell-based, Homo sapiens; conditions: Homo sapiens, HCC1569;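 note: growth inhibition of human HCC1569 cells, read out with a cell viability assay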
Description: SANGER: Inhibition of human HCC1569 cell growth in a cell viability assay.

[16] = test system: NCI-H1770; type: functional, cell-based; conditions: Homo sapiens;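 note: growth inhibition of NCI-H1770 cells determined with a viability readout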
Description: SANGER: Inhibition of human NCI-H1770 cell growth in a cell viability assay.

[17] = test system: OVCAR-3; type: functional, cell-based, Homo sapiens; conditions: Homo sapiens, OVCAR-3;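 note: growth inhibition of human OVCAR-3 cells, determined by a cell viability assay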
Description: SANGER: Inhibition of human OVCAR-3 cell growth in a cell viability assay.

[18] = test system: LoVo; type: functional, cell-based; conditions: Homo sapiens;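 note: growth inhibition of human LoVo cells, read out with a cell viability assay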
Description: SANGER: Inhibition of human LoVo cell growth in a cell viability assay.

[19] = test system: NCI-H520; type: functional, cell-based, Homo sapiens; conditions: Homo sapiens, NCI-H520;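 note: growth inhibition of NCI-H520 cells, measured by a cell viability assay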
Description: SANGER: Inhibition of human NCI-H520 cell growth in a cell viability assay.

[20] = test system: RPMI-8866; type: functional, cell-based; conditions: Homo sapiens
Description: SANGER: Inhibition of human RPMI-8866 cell growth in a cell viability assay.

[21] = test system: GOTO; type: functional, cell-based, Homo sapiens; conditions: Homo sapiens, GOTO;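 note: growth inhibition of GOTO cells, read out by a cell viability assay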
Description: SANGER: Inhibition of human GOTO cell growth in a cell viability assay.

[22] = test system: COLO-678; type: functional, cell-based, Homo sapiens; conditions: Homo sapiens, COLO-678
Description: SANGER: Inhibition of human COLO-678 cell growth in a cell viability assay.

[23] = test system: K562; type: functional, cell-based; conditions: Homo sapiens
Description: SANGER: Inhibition of human K-562 cell growth in a cell viability assay.

[24] = test system: NTERA-2-cl-D1; type: functional, cell-based, Homo sapiens; conditions: Homo sapiens, NTERA-2-cl-D1;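 note: inhibition of cell growth, measured with a cell viability assay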
Description: SANGER: Inhibition of human NTERA-S-cl-D1 cell growth in a cell viability assay.

[25] = test system: LOX IMVI; type: functional, cell-based; conditions: Homo sapiens
Description: SANGER: Inhibition of human LOXIMVI cell growth in a cell viability assay.

[26] = test system: SNB-75; type: functional, cell-based, Homo sapiens; conditions: Homo sapiens, SNB-75;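 note: cell viability assay measuring growth inhibition of human SNB-75 cells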
Description: SANGER: Inhibition of human SNB75 cell growth in a cell viability assay.

[27] = test system: HCT-116; type: functional, cell-based, Homo sapiens; conditions: Homo sapiens, HCT-116
Description: SANGER: Inhibition of human HCT-116 cell growth in a cell viability assay.

[28] = test system: NY; type: functional, cell-based, Homo sapiens; conditions: Homo sapiens, NY
Description: SANGER: Inhibition of human NY cell growth in a cell viability assay.

[29] = test system: EFO-27; type: functional, cell-based, Homo sapiens; conditions: Homo sapiens, EFO-27;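 note: growth inhibition of EFO-27 cells, read out with a cell viability assay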
Description: SANGER: Inhibition of human EFO-27 cell growth in a cell viability assay.

[30] = test system: IGROV-1; type: functional, cell-based, Homo sapiens; conditions: Homo sapiens, IGROV-1;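 note: reduction of IGROV-1 cell growth, read out with a viability assay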
Description: SANGER: Inhibition of human IGROV-1 cell growth in a cell viability assay.

[31] = test system: NCI-H2228; type: functional, cell-based, Homo sapiens; conditions: Homo sapiens, NCI-H2228;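 note: growth inhibition of human NCI-H2228 cells, read out by a cell viability assay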
Description: SANGER: Inhibition of human NCI-H2228 cell growth in a cell viability assay.

[32] = test system: ALL-PO; type: functional, cell-based; conditions: Homo sapiens;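 note: growth inhibition of ALL-PO cells, read out by a cell viability assay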
Description: SANGER: Inhibition of human ALL-PO cell growth in a cell viability assay.

[33] = test system: COLO-800; type: functional, cell-based, Homo sapiens; conditions: Homo sapiens, COLO-800;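 note: growth inhibition of COLO-800 cells, read out with a cell viability assay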
Description: SANGER: Inhibition of human COLO-800 cell growth in a cell viability assay.

[34] = test system: SN12C; type: functional, cell-based, Homo sapiens; conditions: Homo sapiens, SN12C;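 note: growth inhibition of human SN12C cells, measured by a cell viability assay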
Description: SANGER: Inhibition of human SN12C cell growth in a cell viability assay.

[35] = test system: UO-31; type: functional, cell-based; conditions: Homo sapiens;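 note: cell viability assay measuring inhibition of cell growth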
Description: SANGER: Inhibition of human U031 cell growth in a cell viability assay.

[36] = test system: TK-10; type: functional, cell-based, Homo sapiens; conditions: Homo sapiens, TK-10;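 note: growth inhibition of TK-10 cells, read out in a cell viability assay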
Description: SANGER: Inhibition of human TK10 cell growth in a cell viability assay.

[37] = test system: CAS-1; type: functional, cell-based, Homo sapiens; conditions: Homo sapiens, CAS-1;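 note: growth inhibition of CAS-1 cells, measured with a cell viability assay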
Description: SANGER: Inhibition of human CAS-1 cell growth in a cell viability assay.

[38] = test system: MHH-PREB-1; type: functional, cell-based; conditions: Homo sapiens;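 note: cell viability assay measuring inhibition of proliferation of human MHH-PREB-1 cells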
Description: SANGER: Inhibition of human MHH-PREB-1 cell growth in a cell viability assay.

[39] = test system: MS-1; type: functional, cell-based; conditions: Homo sapiens;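 note: growth inhibition of MS-1 cells, read out by cell viability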
Description: SANGER: Inhibition of human MS-1 cell growth in a cell viability assay.

[40] = test system: RO82-W-1; type: functional, cell-based, Homo sapiens; conditions: Homo sapiens, RO82-W-1;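 note: growth inhibition of human RO82-W-1 cells, measured with a cell viability assay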
Description: SANGER: Inhibition of human RO82-W-1 cell growth in a cell viability assay.

[41] = test system: BEN; type: functional, cell-based, Homo sapiens; conditions: Homo sapiens, BEN;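 note: growth inhibition of the BEN cell line, read out with a cell viability assay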
Description: SANGER: Inhibition of human BEN cell growth in a cell viability assay.

[42] = test system: MN-60; type: functional, cell-based; conditions: Homo sapiens;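 note: growth inhibition of the MN-60 cell line, determined with a cell viability assay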
Description: SANGER: Inhibition of human MN-60 cell growth in a cell viability assay.

[43] = test system: U-266; type: functional, cell-based; conditions: Homo sapiens
Description: SANGER: Inhibition of human U-266 cell growth in a cell viability assay.

[44] = test system: AGS; type: functional, cell-based, Homo sapiens; conditions: Homo sapiens, AGS;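 note: growth inhibition of AGS cells, determined with a cell viability assay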
Description: SANGER: Inhibition of human AGS cell growth in a cell viability assay.

[45] = test system: KP-4; type: functional, cell-based, Homo sapiens; conditions: Homo sapiens, KP-4; read-out: IC50;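 note: human KP-4 cells, with growth inhibition read out through a cell viability assay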
Description: SANGER: Inhibition of human KP-4 cell growth in a cell viability assay.

[46] = test system: IGR-1; type: functional, cell-based, Homo sapiens; conditions: Homo sapiens, IGR-1;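 note: growth inhibition of human IGR-1 cells, read out with a cell viability assay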
Description: SANGER: Inhibition of human IGR-1 cell growth in a cell viability assay.

[47] = test system: NCI-H810; type: functional, cell-based, Homo sapiens; conditions: Homo sapiens, NCI-H810;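 note: IC50 reflects inhibition of cancer cell line growth, read out with a cell viability assay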
Description: SANGER: Inhibition of human NCI-H810 cell growth in a cell viability assay.

[48] = test system: NCI-H1648; type: functional, cell-based, Homo sapiens; conditions: Homo sapiens, NCI-H1648;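 note: cell viability assay measuring inhibition of NCI-H1648 cell growth, from the Sanger screening data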
Description: SANGER: Inhibition of human NCI-H1648 cell growth in a cell viability assay.

[49] = test system: OE33; type: functional, cell-based, Homo sapiens; conditions: Homo sapiens, OE33;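 note: growth inhibition of human OE33 cells, measured by a cell viability assay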
Description: SANGER: Inhibition of human OE33 cell growth in a cell viability assay.

[50] = test system: HGC-27; type: functional, cell-based, Homo sapiens; conditions: Homo sapiens, HGC-27;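 note: growth inhibition of human HGC-27 cells, read out in a cell viability assay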
Description: SANGER: Inhibition of human HGC-27 cell growth in a cell viability assay.

[51] = test system: LB771-HNC; type: functional, cell-based, Homo sapiens; conditions: Homo sapiens, LB771-HNC;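 note: growth inhibition of LB771-HNC human cells, read out with a cell viability assay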
Description: SANGER: Inhibition of human LB771-HNC cell growth in a cell viability assay.

[52] = test system: HAL-01; type: functional, cell-based; conditions: Homo sapiens;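 note: growth inhibition of human HAL-01 cells, read out with a cell viability assay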
Description: SANGER: Inhibition of human HAL-01 cell growth in a cell viability assay.

[53] = test system: SCC-9; type: functional, cell-based, Homo sapiens; conditions: Homo sapiens, SCC-9;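 note: Read-out is a cell viability assay, with values giving inhibition of cell growth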
Description: SANGER: Inhibition of human SCC-9 cell growth in a cell viability assay.

O=C(NOCC1CC1)c1ccc(F)c(F)c1Nc1ccc(I)cc1Cl [CI-1040]
IC50 [1]: > 10000 nM | IC50 [2]: > 10000 nM | IC50 [3]: > 10000 nM | IC50 [4]: > 10000 nM | IC50 [5]: > 10000 nM | IC50 [6]: > 10000 nM | IC50 [7]: 2900 nM | IC50 [8]: 3680 nM | IC50 [9]: 9210 nM | IC50 [10]: > 10000 nM | IC50 [11]: > 10000 nM | IC50 [12]: > 10000 nM | IC50 [13]: > 10000 nM | IC50 [14]: > 10000 nM | IC50 [15]: > 10000 nM | IC50 [16]: > 10000 nM | IC50 [17]: > 10000 nM | IC50 [18]: 1460 nM | IC50 [19]: > 10000 nM | IC50 [20]: 6210 nM | IC50 [21]: > 10000 nM | IC50 [22]: 7710 nM | IC50 [23]: 8840 nM | IC50 [24]: > 10000 nM | IC50 [25]: 1890 nM | IC50 [26]: > 10000 nM | IC50 [27]: 6810 nM | IC50 [28]: > 10000 nM | IC50 [29]: 4790 nM | IC50 [30]: 4450 nM | IC50 [31]: > 10000 nM | IC50 [32]: 4360 nM | IC50 [33]: > 10000 nM | IC50 [34]: 3250 nM | IC50 [35]: > 10000 nM | IC50 [36]: 6330 nM | IC50 [37]: > 10000 nM | IC50 [38]: 4120 nM | IC50 [39]: 8880 nM | IC50 [40]: > 10000 nM | IC50 [41]: > 10000 nM | IC50 [42]: > 10000 nM | IC50 [43]: 7560 nM | IC50 [44]: 117 nM | IC50 [45]: > 10000 nM | IC50 [46]: > 10000 nM | IC50 [47]: > 10000 nM | IC50 [48]: > 10000 nM | IC50 [49]: > 10000 nM | IC50 [50]: > 10000 nM | IC50 [51]: > 10000 nM | IC50 [52]: > 10000 nM | IC50 [53]: > 10000 nM

Nc1ccn([C@@H]2O[C@H](CO)[C@@H](O)[C@@H]2O)c(=O)n1 [CYTARABINE]
IC50 [1]: > 2000 nM | IC50 [2]: > 2000 nM | IC50 [3]: > 2000 nM | IC50 [4]: > 2000 nM | IC50 [5]: 805 nM | IC50 [6]: > 2000 nM | IC50 [7]: 998 nM | IC50 [8]: > 2000 nM | IC50 [9]: > 2000 nM | IC50 [10]: > 2000 nM | IC50 [11]: > 2000 nM | IC50 [12]: > 2000 nM | IC50 [13]: > 2000 nM | IC50 [14]: 1350 nM | IC50 [15]: > 2000 nM | IC50 [16]: > 2000 nM | IC50 [17]: > 2000 nM | IC50 [18]: 671 nM | IC50 [19]: > 2000 nM | IC50 [20]: 740 nM | IC50 [21]: 424 nM | IC50 [22]: > 2000 nM | IC50 [23]: > 2000 nM | IC50 [24]: 159 nM | IC50 [25]: 290 nM | IC50 [26]: > 2000 nM | IC50 [27]: 245 nM | IC50 [28]: > 2000 nM | IC50 [29]: 1940 nM | IC50 [30]: 1790 nM | IC50 [31]: 597 nM | IC50 [32]: 287 nM | IC50 [33]: 425 nM | IC50 [34]: 623 nM | IC50 [35]: 1250 nM | IC50 [36]: 1730 nM | IC50 [37]: > 2000 nM | IC50 [38]: 533 nM | IC50 [39]: > 2000 nM | IC50 [40]: > 2000 nM | IC50 [41]: > 2000 nM | IC50 [42]: 935 nM | IC50 [43]: > 2000 nM | IC50 [44]: 918 nM | IC50 [45]: 536 nM | IC50 [46]: 1780 nM | IC50 [47]: > 2000 nM | IC50 [48]: > 2000 nM | IC50 [49]: 1800 nM | IC50 [50]: 455 nM | IC50 [51]: > 2000 nM | IC50 [52]: 328 nM | IC50 [53]: > 2000 nM

From ChEMBL document CHEMBL1201861, “Genomics of Drug Sensitity in Cancer screening data, Wellcome Trust Sanger Institute”
